The results in this text go back to ChEMBL document CHEMBL3046901, “3D-pharmacophore model based virtual screening to identify dual-binding site and selective acetylcholinesterase inhibitors” (Med Chem Res, 2011).

Broadly, the IC50 is the concentration that inhibits the measured activity by half.

The experiment deals with Acetylcholinesterase (Homo sapiens, UniProt P22303). Description: Inhibition of acetylcholinesterase (unknown origin).
Acetylcholinesterase, sequence (P22303 whole entry): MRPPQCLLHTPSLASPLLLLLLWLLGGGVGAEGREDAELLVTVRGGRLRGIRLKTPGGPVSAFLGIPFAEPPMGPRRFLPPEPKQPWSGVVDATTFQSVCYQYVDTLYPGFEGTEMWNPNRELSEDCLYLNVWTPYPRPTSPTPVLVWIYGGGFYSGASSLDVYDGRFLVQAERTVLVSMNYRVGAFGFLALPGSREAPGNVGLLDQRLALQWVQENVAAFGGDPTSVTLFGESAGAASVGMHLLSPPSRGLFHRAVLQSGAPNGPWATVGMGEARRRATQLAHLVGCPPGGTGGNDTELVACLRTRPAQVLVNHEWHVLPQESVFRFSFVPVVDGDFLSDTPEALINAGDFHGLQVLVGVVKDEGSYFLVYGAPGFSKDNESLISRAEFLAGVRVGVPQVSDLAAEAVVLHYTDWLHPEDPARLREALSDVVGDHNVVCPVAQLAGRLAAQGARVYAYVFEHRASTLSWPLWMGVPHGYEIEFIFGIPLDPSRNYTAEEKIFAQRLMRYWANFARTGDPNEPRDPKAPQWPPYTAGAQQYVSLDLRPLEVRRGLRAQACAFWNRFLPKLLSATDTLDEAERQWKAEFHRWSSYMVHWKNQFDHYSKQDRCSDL
`CNCOc1cccc(CN(C)CCCCCCCOc2ccc3c(=O)c4ccccc4oc3c2)c1` gave a 50% inhibitory concentration (IC50) of 0.32 nM. That is a sub-nanomolar value.
Take `CCN(CCCCCOc1ccc2c(=O)c3ccccc3oc2c1)Cc1cccc(OC(=O)NC)c1`: half-maximal inhibition (IC50) was put at 0.82 nM. This IC50 is about 2.6-fold higher than that of the compound before.
The figure for `CN(CCCCCOc1ccc2c(=O)c3ccccc3oc2c1)Cc1ccccc1` is 6250 nM.
